US20110065663A1, “ANTI-CANCER COMBINATION THERAPY” (Katholieke Universiteit Leuven, K.U. Leuven R&D, priority 2008, published 2011)

What was measured:
M. hyorhinis TP = test: TP activity in the medium of MCF-7/HYOR cell cultures (HPLC, conversion of nucleoside to free base); assay type: biochemical, Mycoplasma hyorhinis; details: 200 μM substrate, 37° C.
Experimental: The TP activity of M. hyorhinis and the conversion of dThd, FdUrd, 5′DFUR and TFT to thymine, 5FU, 5FU or TF-thymine respectively were measured by high-pressure liquid chromatography (HPLC) analysis. MCF-7 and MCF-7/HYOR cells were seeded at a density of 20,000 cells/cm^2 in DMEM with 10% FBS. Four days later, the medium was collected and cleared by centrifugation at 1,400 rpm. For some experiments, the medium of MCF-7/HYOR cells was filtered using a 0.1 μm micro filter (Acrodisc syringe filter, PALL Corporation, East Hills, N.Y.) to remove the mycoplasmas from the medium. 600 μl of the medium was incubated with 200 μM of substrate (dThd, 5′DFUR, TFT or FdUrd) at 37° C. in the presence or absence of 10 μM TPi. At different time points (i.e. 0, 15, 30, 60, 120 minutes and 16 hours), 100 μl aliquots were withdrawn, transferred to Eppendorf tubes and heated at 95° C. for 3 min. Next, the samples were rapidly cooled on ice, exposed for 20 min to 200 μl ice-cold methanol and cleared by centrifugation at 15,000 rpm for 15 minutes. As a positive control, an enzyme activity assay with E. coli TP (Sigma) was performed. For this reaction, 0.025 U of TP were incubated with 200 μM of substrate in TP-buffer (10 mM Tris-HCl, pH 7.6, 1 mM EDTA, 2 mM potassium phosphate and 150 mM NaCl) in a total volume of 600 μl. Aliquots of 100 μl were withdrawn from the reaction mixture at several time points and treated as described above. The nucleosides were separated from their nucleobases on a reversed-phase RP-8 column (Merck, Darmstadt, Germany) and quantified by HPLC analysis (Aliance 2690, Waters, Milford, Mass.). The separation was performed by a linear gradient from 100% buffer B (50 mM NaH2PO4 and 5 mM heptane sulfonic acid, pH 3.2), to 20% buffer B and 80% acetonitrile. […] UV-based detection of all nucleosides was performed at 267 nm.

E. coli TP = target: T1, E. coli TP (Escherichia coli, UniProt P07650); test: Enzyme activity assay with recombinant E. coli TP (positive control); assay type: biochemical; details: 0.025 U TP, 200 μM substrate
T1 construct: purchased Sigma
T1 sequence (P07650 whole entry): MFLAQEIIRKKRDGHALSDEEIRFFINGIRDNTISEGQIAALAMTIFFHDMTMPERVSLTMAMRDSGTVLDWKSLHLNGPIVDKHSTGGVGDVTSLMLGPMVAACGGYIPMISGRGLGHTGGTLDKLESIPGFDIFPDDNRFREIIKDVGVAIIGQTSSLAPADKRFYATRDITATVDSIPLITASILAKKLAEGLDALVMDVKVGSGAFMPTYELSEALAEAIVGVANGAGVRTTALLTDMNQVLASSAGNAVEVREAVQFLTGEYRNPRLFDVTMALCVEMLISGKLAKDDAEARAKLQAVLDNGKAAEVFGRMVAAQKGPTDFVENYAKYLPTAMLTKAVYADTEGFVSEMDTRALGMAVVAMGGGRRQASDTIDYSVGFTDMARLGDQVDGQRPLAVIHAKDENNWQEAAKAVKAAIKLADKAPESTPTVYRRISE
Experimental: The TP activity of M. hyorhinis and the conversion of dThd, FdUrd, 5′DFUR and TFT to thymine, 5FU, 5FU or TF-thymine respectively were measured by high-pressure liquid chromatography (HPLC) analysis. MCF-7 and MCF-7/HYOR cells were seeded at a density of 20,000 cells/cm^2 in DMEM with 10% FBS. Four days later, the medium was collected and cleared by centrifugation at 1,400 rpm. For some experiments, the medium of MCF-7/HYOR cells was filtered using a 0.1 μm micro filter (Acrodisc syringe filter, PALL Corporation, East Hills, N.Y.) to remove the mycoplasmas from the medium. 600 μl of the medium was incubated with 200 μM of substrate (dThd, 5′DFUR, TFT or FdUrd) at 37° C. in the presence or absence of 10 μM TPi. At different time points (i.e. 0, 15, 30, 60, 120 minutes and 16 hours), 100 μl aliquots were withdrawn, transferred to Eppendorf tubes and heated at 95° C. for 3 min. Next, the samples were rapidly cooled on ice, exposed for 20 min to 200 μl ice-cold methanol and cleared by centrifugation at 15,000 rpm for 15 minutes. As a positive control, an enzyme activity assay with E. coli TP (Sigma) was performed. For this reaction, 0.025 U of TP were incubated with 200 μM of substrate in TP-buffer (10 mM Tris-HCl, pH 7.6, 1 mM EDTA, 2 mM potassium phosphate and 150 mM NaCl) in a total volume of 600 μl. Aliquots of 100 μl were withdrawn from the reaction mixture at several time points and treated as described above. The nucleosides were separated from their nucleobases on a reversed-phase RP-8 column (Merck, Darmstadt, Germany) and quantified by HPLC analysis (Aliance 2690, Waters, Milford, Mass.). The separation was performed by a linear gradient from 100% buffer B (50 mM NaH2PO4 and 5 mM heptane sulfonic acid, pH 3.2), to 20% buffer B and 80% acetonitrile. Retention times of thymine and thymidine were respectively 5.1 and 10.8 minutes. UV-based detection of all nucleosides was performed at 267 nm.

Compound | Percent conversion of nucleoside to the free pyrimidine base in MCF-7/HYOR medium (M. hyorhinis TP; 2 hours) [%] | Percent conversion of nucleoside to the free pyrimidine base in MCF-7/HYOR medium (M. hyorhinis TP; 16 hours) [%] | Percent conversion of nucleoside to the free pyrimidine base, recombinant E. coli TP (E. coli TP; 2 hours) [%] | Percent conversion of nucleoside to the free pyrimidine base, recombinant E. coli TP (E. coli TP; 16 hours) [%]
O=c1[nH]c(=O)n([C@H]2C[C@H](O)[C@@H](CO)O2)cc1F [FdUrd, 5-fluoro-2′-deoxyuridine] | 43 | 77 | 57 | 63
O=c1[nH]c(=O)n([C@H]2C[C@H](O)[C@@H](CO)O2)cc1C(F)(F)F [TFT, 5-trifluorothymidine] | 8 | 55 | 48 | 85
